Series [1] has as its system Staphylococcus aureus enoyl-ACP reductase (saFabI). Conditions: cited from earlier work.
The next series deals with MRSA strain BAA1762. Kind of series: S. aureus thigh muscle infection model, in vivo efficacy. More on the design: species or system Swiss Webster mice. Conditions: mouse thigh muscle infection model.
The conditions of series [2]: orally ingested, humans; cited from earlier work.
For series [3] the following is noted: in vivo; cited from earlier work.
The subject of series [4] is S. aureus infected thigh muscles. As to conditions: in vivo; cited from earlier work.

The values below come from paper PMC4254008 (European journal of medicinal chemistry, 2014).

`CCCCCCc1ccc(Oc2ccccc2C#N)c(O)c1` [PT119]: in series [1] (on saFabI), the residence time is 750 min. Moreover, the inhibition constant Ki in series [1] (saFabI) is 0.01 nM. In addition, the “reduction in the CFU's” value with MRSA strain BAA1762 was 3 log. Turning to `Oc1cc(Cl)ccc1Oc1ccc(Cl)cc1Cl` [triclosan], in series [2], the “absorption from the gastrointestinal tract” value is listed as “readily absorbed”. For the compound AFN-1252, the AUC/MIC in series [3] was 20. For the compound [^18F]FDG, the “accumulation in infected thigh relative to healthy thigh” value in series [4] was 2.3 – 2.6 times.

The Ki is a dissociation constant, usually derived from enzyme kinetics or from competition with a known ligand.
